# Data published in ChEMBL document CHEMBL2311425, “Histone deacetylase (HDAC) inhibitors with a novel connecting unit linker region reveal a selectivity profile for HDAC4 and HDAC5 with improved activity against chemoresistant cancer cells” (J Med Chem, 2013).
# What was measured:
# MDA-MB-231 [1] = experiment: Potentiation of 25 uM cisplatin-induced toxicity in 1 uM cisplatin resistant human MDA-MB-231 cells at 0.5 uM pretreated for 48 hrs followed by 1 uM cisplatin treatment by MTT assay; type: functional
# MDA-MB-231 [2] = experiment: Potentiation of 25 uM cisplatin-induced toxicity in 1 uM cisplatin resistant human MDA-MB-231 cells at 0.25 uM pretreated for 48 hrs followed by 1 uM cisplatin treatment by MTT assay; type: functional
# MDA-MB-231 [3] = experiment: Potentiation of 10 uM cisplatin-induced toxicity in 1 uM cisplatin resistant human MDA-MB-231 cells at 1 uM pretreated for 48 hrs followed by 1 uM cisplatin treatment by MTT assay; type: functional
# MDA-MB-231 [4] = experiment: Potentiation of 10 uM cisplatin-induced toxicity in 1 uM cisplatin resistant human MDA-MB-231 cells at 0.5 uM pretreated for 48 hrs followed by 1 uM cisplatin treatment by MTT assay; type: functional
# MDA-MB-231 [5] = experiment: Potentiation of 10 uM cisplatin-induced toxicity in 1 uM cisplatin resistant human MDA-MB-231 cells at 0.25 uM pretreated for 48 hrs followed by 1 uM cisplatin treatment by MTT assay; type: functional
# KYSE-510 [6] = experiment: Potentiation of 0.5 uM cisplatin-induced toxicity in 0.5 uM cisplatin resistant human KYSE-510 cells at 0.5 uM pretreated for 48 hrs followed by 0.5 uM cisplatin treatment by MTT assay; type: functional
# Histone deacetylase 2 = Histone deacetylase 2 (Homo sapiens, UniProt Q92769); experiment: Inhibition of human HDAC2 by fluorescence assay
# Chain of Histone deacetylase 2 (Q92769 whole entry): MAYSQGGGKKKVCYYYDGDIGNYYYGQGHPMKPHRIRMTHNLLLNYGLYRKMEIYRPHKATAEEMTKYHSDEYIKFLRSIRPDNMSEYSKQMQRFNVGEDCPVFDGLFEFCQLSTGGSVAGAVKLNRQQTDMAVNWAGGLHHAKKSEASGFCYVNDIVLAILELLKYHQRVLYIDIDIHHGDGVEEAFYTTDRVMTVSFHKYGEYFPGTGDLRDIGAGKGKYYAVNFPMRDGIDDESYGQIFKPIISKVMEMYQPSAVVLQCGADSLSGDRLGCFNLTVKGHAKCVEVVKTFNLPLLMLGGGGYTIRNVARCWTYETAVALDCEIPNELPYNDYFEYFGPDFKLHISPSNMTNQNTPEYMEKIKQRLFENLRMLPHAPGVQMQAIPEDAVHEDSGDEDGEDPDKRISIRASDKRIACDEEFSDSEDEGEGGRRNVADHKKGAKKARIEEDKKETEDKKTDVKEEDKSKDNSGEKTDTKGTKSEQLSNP
# Histone deacetylase 1 = Histone deacetylase 1 (Homo sapiens, UniProt Q13547); experiment: Inhibition of human HDAC1 by fluorescence assay
# Chain of Histone deacetylase 1 (Q13547 whole entry): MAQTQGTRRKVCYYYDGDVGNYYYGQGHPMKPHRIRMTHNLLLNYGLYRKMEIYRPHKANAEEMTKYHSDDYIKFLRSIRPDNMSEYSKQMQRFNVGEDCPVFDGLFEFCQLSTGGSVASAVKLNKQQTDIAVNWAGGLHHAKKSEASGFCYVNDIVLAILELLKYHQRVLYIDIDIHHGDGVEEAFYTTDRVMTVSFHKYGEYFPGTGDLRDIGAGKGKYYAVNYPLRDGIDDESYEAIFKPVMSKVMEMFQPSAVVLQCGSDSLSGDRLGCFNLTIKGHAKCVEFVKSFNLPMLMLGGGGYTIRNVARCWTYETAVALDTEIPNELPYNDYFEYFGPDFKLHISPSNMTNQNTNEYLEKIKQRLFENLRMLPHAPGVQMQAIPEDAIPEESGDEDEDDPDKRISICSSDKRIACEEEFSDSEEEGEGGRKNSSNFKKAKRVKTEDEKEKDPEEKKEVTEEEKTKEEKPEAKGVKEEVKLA
# KYSE-510 [7] = experiment: Potentiation of 8 uM cisplatin-induced toxicity in 0.5 uM cisplatin resistant human KYSE-510 cells at 1 uM pretreated for 48 hrs followed by 0.5 uM cisplatin treatment by MTT assay; type: functional
# CAL-27 [8] = experiment: Potentiation of 45 uM cisplatin-induced toxicity in 1 uM cisplatin resistant human CAL27 cells at 0.25 uM pretreated for 48 hrs followed by 1 uM cisplatin treatment by MTT assay; type: functional
# MDA-MB-231 [9] = experiment: Potentiation of […] cisplatin-induced toxicity in 1 uM cisplatin resistant human MDA-MB-231 cells at 0.25 uM pretreated for 48 hrs followed by 1 uM cisplatin treatment by MTT assay; type: functional
# A2780 = experiment: Potentiation of 10 uM cisplatin-induced toxicity in 5 uM cisplatin resistant human A2780 cells at 0.25 uM pretreated for 48 hrs followed by 5 uM cisplatin treatment by MTT assay; type: functional
# KYSE-510 [10] = experiment: Potentiation of 3.16 uM cisplatin-induced toxicity in 0.5 uM cisplatin resistant human KYSE-510 cells at 1.5 uM pretreated for 48 hrs followed by 0.5 uM cisplatin treatment by MTT assay; type: functional
# KYSE-510 [11] = experiment: Potentiation of 3.16 uM cisplatin-induced toxicity in 0.5 uM cisplatin resistant human KYSE-510 cells at 1 uM pretreated for 48 hrs followed by 0.5 uM cisplatin treatment by MTT assay; type: functional
# MDA-MB-231 [12] = experiment: Potentiation of 40 uM cisplatin-induced toxicity in 1 uM cisplatin resistant human MDA-MB-231 cells at 0.25 uM pretreated for 48 hrs followed by 1 uM cisplatin treatment by MTT assay; type: functional
# CAL-27 [13] = experiment: Potentiation of 5 uM cisplatin-induced toxicity in 1 uM cisplatin resistant human CAL27 cells at 0.25 uM pretreated for 48 hrs followed by 1 uM cisplatin treatment by MTT assay; type: functional
# MDA-MB-231 [14] = experiment: Potentiation of 25 uM cisplatin-induced toxicity in 1 uM cisplatin resistant human MDA-MB-231 cells at 1.5 uM pretreated for 48 hrs followed by 1 uM cisplatin treatment by MTT assay; type: functional
# MDA-MB-231 [15] = experiment: Potentiation of 25 uM cisplatin-induced toxicity in 1 uM cisplatin resistant human MDA-MB-231 cells at 1 uM pretreated for 48 hrs followed by 1 uM cisplatin treatment by MTT assay; type: functional
smiles,measurement,setting,value
Cc1cc(C)cc(C(=O)NOCCCCCC(=O)NO)c1,Activity,MDA-MB-231 [1],Dose-dependent effect
same,fractional inhibitory concentration index (FICI),MDA-MB-231 [1],0.79
same,Activity,MDA-MB-231 [2],Dose-dependent effect
same,Activity,MDA-MB-231 [3],Dose-dependent effect
same,fractional inhibitory concentration index (FICI),MDA-MB-231 [3],0.85
same,Activity,MDA-MB-231 [4],Dose-dependent effect
same,Activity,MDA-MB-231 [5],Dose-dependent effect
same,Activity,KYSE-510 [6],Dose-dependent effect
same,fractional inhibitory concentration index (FICI),KYSE-510 [6],0.13
same,IC50,Histone deacetylase 2,0.881 µM
same,IC50,Histone deacetylase 1,0.32 µM
same,Activity,KYSE-510 [7],Dose-dependent effect
same,fractional inhibitory concentration index (FICI),KYSE-510 [7],0.18
same,Activity,CAL-27 [8],Dose-dependent effect
same,fractional inhibitory concentration index (FICI),CAL-27 [8],0.27
same,Activity,MDA-MB-231 [9],Dose-dependent effect
same,fractional inhibitory concentration index (FICI),MDA-MB-231 [9],0.9
same,Activity,A2780,Dose-dependent effect
same,fractional inhibitory concentration index (FICI),A2780,0.78
same,Activity,KYSE-510 [10],Dose-dependent effect
same,fractional inhibitory concentration index (FICI),KYSE-510 [10],0.12
same,Activity,KYSE-510 [11],Dose-dependent effect
same,fractional inhibitory concentration index (FICI),KYSE-510 [11],0.09
same,Activity,MDA-MB-231 [12],Dose-dependent effect
same,Activity,CAL-27 [13],Dose-dependent effect
same,Activity,MDA-MB-231 [14],Dose-dependent effect
same,fractional inhibitory concentration index (FICI),MDA-MB-231 [14],0.73
same,Activity,MDA-MB-231 [15],Dose-dependent effect
same,fractional inhibitory concentration index (FICI),MDA-MB-231 [15],0.72
